This is an account of results in PMC3757248, “Antiestrogen-binding site ligands induce autophagy in myeloma cells that proceeds through alteration of cholesterol metabolism” (Oncotarget, 2013).

Where two headings read alike, the source gives them in different places.

Experiment [1] relates to LP-1. Set-up: method as in earlier work. The settings on record: cited from earlier work.
For experiment [2], the system named is NCI-H929. Set-up: method as in earlier work. The settings on record: cited from earlier work.
The test system of experiment [3] is OPM-2. Set-up: method as in earlier work. The settings on record: cited from earlier work.
Experiment [4] relates to RPMI 8226. Set-up: method as in earlier work. The conditions noted are these: cited from earlier work.
The target in experiment [5] is T1, AEBS (Homo sapiens, UniProt Q15125+Q9UBM7). In words: Binding to the AEBS in RPMI 8226.
In experiment [6] the test system is LP-1 cells. In words: Sterols accumulated in cells, HPLC and GC/MS. The settings on record: LP1, 48 h incubation. In kind it is cell-based, human. As to the method:
(§1) The organic layer was reduced to dryness under a flux of argon and the residue was resuspended in ethanol. Sterols were analyzed by liquid chromatography and gas-liquid chromatography as described before. Neutral lipids and sphingomyelin analyses were done according to previously published procedures.

For experiment [7], the system named is RPMI 8226 cells. Description: Sterols accumulated in cells, HPLC and GC/MS. The experiment is classed as cell-based, human. The conditions noted are these: RPMI 8226, 48 h incubation. As for the experimental part:
as §1

Experiment [8] has as its system RPMI 8226 cells. In words: Electron microscopy for MLBs, AVs and UVs. In kind it is cell-based, human. The settings on record: 48 h, 10 μM drug (PBPE 40 μM).
Experiment [9] relates to LP-1 cells. In words: Electron microscopy for MLBs, AVs and UVs. The conditions noted are these: 48 h, 10 μM drug (PBPE 40 μM). In kind it is cell-based, human.
Experiment [10] concerns LP-1 cells. Description: Presence of 5,6-EC in cells by GC/MS. The settings on record: 48 h, 10 μM drug (PBPE 40 μM). The experiment is classed as cell-based, human. As for the experimental part:
as §1

For experiment [11], the system named is RPMI 8226 cells. Description: Presence of 5,6-EC in cells by GC/MS. In kind it is cell-based, human. The settings on record: 48 h, 10 μM drug (PBPE 40 μM). As to the method: as §1
Experiment [12] deals with HMCLs. Description: Free sterol accumulation in HMCLs. The experiment is classed as cell-based, human. As to the method:
as §1

Experiment [13] has as its system RPMI 8226 and LP-1 cells. In words: Cell viability, MTT assay. The experiment is classed as cell-based, human. The conditions noted are these: for cell death (viable cells, MTT assay): 1 μM LY 294002, 10 nM everolimus, 10 μM RU 39411, 40 μM PBPE; for sensitivity to dexamethasone (MTT assay): 10 μM dexamethasone 24 h, RU 39411 10 μM for 2 h before. As for the experimental part:
RPMI 8226 were obtained from R Bataille (CLCC, Nantes, France) and LP-1 cells from D Bouscary (Institut Cochin, Paris, France). At their arrival, the identity of cells was checked by karyotyping and surface markers expression; cells were then amplified and frozen. HMCLs were maintained in RPMI 1640 medium (Lonza, Basel, Switzerland) supplemented with 2 mM L-glutamine (Lonza) and 10% FCS (fetal calf serum) (PAA Laboratories, Velizy-Villacoublay, France). In experiments with AEs, cells were cultured in phenol red-free medium plus FCS. AEs were dissolved in ethanol (EtOH) to obtain 10 mM stock solution and then diluted into medium immediately before use. For controls, vehicle was added at the same final concentration. Cell viability was determined using CellTiter 96® AQueous One Solution (MTT [([3]-([4],[5])-dimethylthiazol-[2]-yl)-[2],[5]-diphenyltetrazolium bromide] assay, Promega, Charbonnières, France) according to the supplier's instructions.
(In general: Tetrazolium dyes change colour on reduction, which living cells bring about.)

The target of experiment [14] is T1, AEBS. In words: Binding to the AEBS in LP1. The arrangement: endogenous in cells; host or cells: LP-1 human multiple myeloma cell lines.
Experiment [15] concerns the target T2, ChEH (Homo sapiens, UniProt Q15125+Q9UBM7). In words: ChEH activity measured on intact cells. In kind it is cell-based. The settings on record: LP-1 intact cells, [14C]-5,6-EC 0.6 μM, drugs 1 nM to 10 μM over 24 h; read-out: ChEH IC50. Set-up: endogenous in cells; host or cells: LP-1 human multiple myeloma cell lines. The source says:
(§2) Cells were then pelleted and extracted with chloroform/methanol (2/1). The organic layer was reduced to dryness under a flux of argon and the residue was resuspended in EtOH. Samples were applied to thin layer chromatography (TLC) plates and developed using ethyl acetate as previously described. The radioactive metabolites were visualized by autoradiography using Kodak Biomax MS films.

In experiment [16] the target is T2, ChEH. In words: ChEH activity measured on intact cells. The experiment is classed as cell-based. The arrangement: endogenous in cells; host or cells: RPMI 8226 human multiple myeloma cell lines. The conditions noted are these: RPMI 8226 intact cells, [14C]-5,6-EC 0.6 μM, drugs 1 nM to 10 μM over 24 h; read-out: ChEH IC50.
Source text: as §2

For experiment [17], the target named is T1, AEBS. Description: Binding to the AEBS in HMCLs. The arrangement: endogenous in cells; host or cells: RPMI 8226 and LP-1 human multiple myeloma cell lines.
The target of experiment [18] is T2, ChEH. Description: ChEH activity in HMCLs (TLC). In kind it is cell-based. Set-up: endogenous in cells; host or cells: RPMI 8226 and LP-1 human multiple myeloma cell lines. The settings on record: OHT, Tam, RU 58668 10 μM, PBPE 40 μM.
Source text: as §2

The mark [19] stands for this setting: RPMI 8226, presence of 500 μM Vit E.

T1 sequence (Q15125 whole entry): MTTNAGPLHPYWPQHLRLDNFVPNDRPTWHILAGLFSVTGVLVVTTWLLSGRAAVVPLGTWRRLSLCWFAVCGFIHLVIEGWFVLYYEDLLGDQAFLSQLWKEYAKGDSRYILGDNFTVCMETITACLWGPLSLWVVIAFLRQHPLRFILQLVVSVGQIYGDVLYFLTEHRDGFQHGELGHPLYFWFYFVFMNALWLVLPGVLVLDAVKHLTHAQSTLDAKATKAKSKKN
T1 sequence (Q9UBM7 whole entry): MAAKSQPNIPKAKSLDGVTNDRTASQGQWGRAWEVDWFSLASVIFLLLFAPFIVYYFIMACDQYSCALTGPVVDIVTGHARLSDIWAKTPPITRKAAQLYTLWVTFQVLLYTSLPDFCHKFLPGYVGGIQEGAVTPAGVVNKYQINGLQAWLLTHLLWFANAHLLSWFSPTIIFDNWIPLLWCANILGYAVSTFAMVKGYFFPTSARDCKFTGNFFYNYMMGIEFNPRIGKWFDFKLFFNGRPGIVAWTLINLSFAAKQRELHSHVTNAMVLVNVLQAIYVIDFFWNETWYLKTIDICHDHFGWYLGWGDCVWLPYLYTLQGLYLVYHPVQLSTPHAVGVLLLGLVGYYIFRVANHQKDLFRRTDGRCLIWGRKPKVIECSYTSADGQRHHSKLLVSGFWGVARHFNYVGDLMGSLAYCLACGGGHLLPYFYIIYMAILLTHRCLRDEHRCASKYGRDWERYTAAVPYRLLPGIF
T2 sequence (Q15125 whole entry): as the sequence (Q15125 whole entry) above
T2 sequence (Q9UBM7 whole entry): as the sequence (Q9UBM7 whole entry) above

Take `C[C@]12CC[C@@H]3c4ccc(O)cc4C[C@@H](CCCCCCCCC[S+]([O-])CCCC(F)(F)C(F)(F)F)[C@H]3[C@@H]1CC[C@@H]2O` (stereo partly shown) [Fulvestrant]: the “SERM and SERDs effects on MM cell lines” value was “G1-arrest” in experiment [1], “Apoptosis” in experiment [2], “G1-arrest” in experiment [3] and “Apoptosis” in experiment [4].
As a reminder, the Ki is a measure of affinity in units of concentration, obtained from inhibition or displacement. Usually IC50 stands for the concentration that inhibits the measured activity by half. Consider `CN(C)CCOc1ccc([C@H]2C[C@]3(C)[C@@H](O)CC[C@H]3[C@@H]3CCc4cc(O)ccc4[C@H]32)cc1` [RU 39411, 11β-(4-(2-(dimethylamino)-ethoxy)-phenyl)estra-1,3,5(10)-triene-3,17β-diol], for which the inhibition constant Ki in [5] was 29.4 ± 5.5 nM; in experiment [14], 27.4 ± 3.1 nM. Further, the results for the Desmosterol in [6] and in experiment [7] were 46.4 percent by the weight of total sterol and 41.5 percent by the weight of total sterol, respectively. The Zymostenol is listed as 1.7 percent by the weight of total sterol in experiment [6] and 1.8 percent by the weight of total sterol in experiment [7]. Also, the AV result in experiment [8] (RPMI 8226, absence of Vit E) was “+ + (The sign + means that 80 % cells were positive and contained at least 5 vesicles)”; in [8] (setting [19]), “+ + (The sign + means that 80 % cells were positive and contained at least 5 vesicles)”; in [9] (LP-1, absence of Vit E), “+ + (The sign + means that 80 % cells were positive and contained at least 5 vesicles)”; in [9] (LP-1, presence of 500 μM Vit E), “+ + (The sign + means that 80 % cells were positive and contained at least 5 vesicles)”. Also, the MLB result was “+ + (The sign + means that 80 % cells were positive and contained at least 5 vesicles)” in experiment [8] (RPMI 8226, absence of Vit E); “+ + (The sign + means that 80 % cells were positive and contained at least 5 vesicles)” in [8] (setting [19]); “+ + (The sign + means that 80 % cells were positive and contained at least 5 vesicles)” in experiment [9] (LP-1, absence of Vit E); “+ + (The sign + means that 80 % cells were positive and contained at least 5 vesicles)” in experiment [9] (LP-1, presence of 500 μM Vit E). Also, the UV result was “+ (The sign + means that 80 % cells were positive and contained at least 5 vesicles)” in [8] (RPMI 8226, absence of Vit E); “− (otherwise they were considered as negative (-))” in experiment [8] (setting [19]); “+ (The sign + means that 80 % cells were positive and contained at least 5 vesicles)” in experiment [9] (LP-1, absence of Vit E); “− (otherwise they were considered as negative (-))” in experiment [9] (LP-1, presence of 500 μM Vit E). Further, the “5,6-EC” value in experiment [10] (LP-1, absence of Vit E) is listed as “+”; in experiment [10] (LP-1, presence of 500 μM Vit E), “−”; in [11] (RPMI 8226, absence of Vit E), “+”; in [11] (setting [19]), “−”. For the same compound, in experiment [12], the free sterol accumulated result is on record as “accumulation of desmosterol”. Also, in [13], the “cell death (viable cells, MTT assay)” value is listed as “cell death that was strictly caspase-independent”. For the same compound, the “sensitivity to dexamethasone (MTT assay)” value in experiment [13] is recorded as “restores the sensitivity”. Moreover, the concentration for half-maximal inhibition (IC50) in [15] turned out to be 727 ± 31 nM; in experiment [16], 632 ± 22 nM. Besides, the “affinity for the AEBS” value in experiment [17] was “high affinity”.
Regarding `CO[C@H]1C[C@@H]2CC[C@@H](C)[C@@](O)(O2)C(=O)C(=O)N2CCCC[C@H]2C(=O)O[C@H]([C@H](C)C[C@@H]2CC[C@@H](OCCO)[C@H](OC)C2)CC(=O)[C@H](C)/C=C(\C)[C@@H](O)[C@@H](OC)C(=O)[C@H](C)C[C@H](C)/C=C/C=C/C=C/1C` [everolimus], the “cell death (viable cells, MTT assay)” value in experiment [13] is recorded as “induced cell death”.
As to `C[C@@H]1C[C@H]2[C@@H]3CCC4=CC(=O)C=C[C@]4(C)[C@@]3(F)[C@@H](O)C[C@]2(C)[C@@]1(O)C(=O)CO` [dexamethasone], the “sensitivity to dexamethasone (MTT assay)” value in [13] was “resistant”.
For `CC/C(=C(\c1ccccc1)c1ccc(OCCN(C)C)cc1)c1ccccc1` [Tam, Tamoxifen], the Desmosterol in [6] and in experiment [7] was 0.2 percent by the weight of total sterol in each case. Besides, the Zymostenol is given as 38.2 percent by the weight of total sterol in experiment [6] and 35.9 percent by the weight of total sterol in [7]. The AV result was “+ + (The sign + means that 80 % cells were positive and contained at least 5 vesicles)” in experiment [8] (RPMI 8226, absence of Vit E); “+ + (The sign + means that 80 % cells were positive and contained at least 5 vesicles)” in experiment [8] (setting [19]); “+ + (The sign + means that 80 % cells were positive and contained at least 5 vesicles)” in [9] (LP-1, absence of Vit E); “+ + (The sign + means that 80 % cells were positive and contained at least 5 vesicles)” in experiment [9] (LP-1, presence of 500 μM Vit E). The MLB result is “+ + (The sign + means that 80 % cells were positive and contained at least 5 vesicles)” in [8] (RPMI 8226, absence of Vit E); “+ + (The sign + means that 80 % cells were positive and contained at least 5 vesicles)” in experiment [8] (setting [19]); “+ + (The sign + means that 80 % cells were positive and contained at least 5 vesicles)” in experiment [9] (LP-1, absence of Vit E); “+ + (The sign + means that 80 % cells were positive and contained at least 5 vesicles)” in experiment [9] (LP-1, presence of 500 μM Vit E). Also, the UV entry in [8] (RPMI 8226, absence of Vit E) is “+ (The sign + means that 80 % cells were positive and contained at least 5 vesicles)”; in experiment [8] (setting [19]), “− (otherwise they were considered as negative (-))”; in experiment [9] (LP-1, absence of Vit E) it was “+ (The sign + means that 80 % cells were positive and contained at least 5 vesicles)”; in experiment [9] (LP-1, presence of 500 μM Vit E), “− (otherwise they were considered as negative (-))”. The “5,6-EC” value in experiment [10] (LP-1, absence of Vit E) is “+”; in experiment [10] (LP-1, presence of 500 μM Vit E), “−”; in experiment [11] (RPMI 8226, absence of Vit E), “+”; in experiment [11] (setting [19]), “−”. Besides, the free sterol accumulated entry in [12] is reported as “accumulation zymostenol”. The “affinity for the AEBS” value in [17] is on record as “high affinity”. The “ChEH activity, conversion of 5,6-EC into CT by TLC” value in experiment [18] is given as “ChEH activity was inhibited”.
Take `O=c1cc(N2CCOCC2)oc2c(-c3ccccc3)cccc12` [LY 294002]: the “cell death (viable cells, MTT assay)” value in [13] is “induced cell death”.
